This note sets out measurements from patent publication US6919344B2, “N-substituted indole-3-glyoxylamides having anti-asthmatic, antiallergic and immunosuppressant/immuno-modulating action” (ASTA MEDICA, Aktiengesellschaft, priority 1996, dated 2005).

The test system of data set [1] is lymphoproliferation. Briefly: Inhibition of lymphoproliferation (colorimetric MTT assay). In kind it is cell-based. An excerpt: Colorimetric Assay (Based on the MTT Test) for the Non-Radioactive Quantification of Cell Proliferation and Survival Ability
MTT is used for the quantitative determination of cell proliferation and activation, for example, in the reaction on growth factors and cytokines such as IL-2 and IL-4 and also for the quantification of the antiproliferative or toxic effects.
The assay is based on the cleavage of yellow tetrazolium salt MTT to give purple-red formazan crystals by metabolically active cells.
The cells, cultured in a 96-hole tissue culture plate, are incubated for about 4 h with yellow MTT solution. After this incubation time, purple-red formazan salt crystals are formed. These salt crystals are insoluble in aqueous solutions, but can be dissolved by addition of solubilizer and by incubation of the plates overnight.
The dissolved formazan product is quantified spectrophotometrically using an ELISA reader. An increase in the number of living cells results in an increase in the total metabolic activity in the sample. This increase correlates directly with the amount of the purple-red formazan crystals formed, which are [sic] measured by the absorption.
Background: Tetrazolium dyes change colour on reduction, which living cells bring about.

Data set [2] addresses recombinant human Cyp B (Homo sapiens, UniProt P23284). Briefly: Peptidylprolyl isomerase (PPIase) activity inhibition assay. As to conditions: Cyp B incubated with 1 μM substance for 15 min, 10° C. In kind it is biochemical. On the procedure:
Assays for the Determination of Peptidylprolyl Isomerase (PPIase) Activity and Inhibition
The PPIase activity of the cyclophilins was measured enzymatically according to Fischer et al. (1984). After isomerization of the substrate by the peptidyl prolyl isomerase, this is accessible to chymotrypsin, which cleaves the chromophore p-nitroaniline. For the determination of inhibition of the PPIase activity by substance, recombinant human Cyp B was used. The interaction of Cyp B with a potential inhibitor was carried out as follows:
A certain concentration of purified Cyp B was incubated with 1 μM substance for 15 min. The PPIase reaction was started by addition of the substrate solution to the reaction mixture which contains HEPES buffer, chymotrypsin and either test or control samples. Under these conditions, first-order kinetics were obtained with a constant Kobserved=K0+Kenz, where K0 is the spontaneous isomerization and Kenz is the rate of isomerization of the PPIase activity. The extinction values which correspond to the amount of the chromophore cleaved were measured using a Beckman DU 70 spectrophotometer at a constant reaction temperature of 10° C.
The observed residual activity in the presence of various substances was compared with the cyclophilins only treated with solvent. The results were given in % residual activity. Cyclosporin A (CsA) was used as the reference compound. […]

Data set [3] deals with "late phase" eosinophilia in the BAL. Briefly: Inhibition of the "late phase" eosinophilia in the BAL 24 hours after allergen challenge in guinea pigs. In kind it is in vivo. Here is the method: Inhibition of the “Late Phase” eosinophilia in the BAL 24 Hours after Allergen Challenge in Guinea Pigs
Male guinea pigs (200-250 g, Dunkin Hartley Shoe) were actively sensitized subcutaneously with ovalbumin (10 μg of ovalbumin+1 mg of Al(OH)3) and boosted 2 weeks later. One week after boosting with ovalbumin, the animals were exposed to an inhalation challenge with ovalbumin (0.5% strength solution) for 20-30 seconds. 24 hours later, the animals were killed by means of an overdose of urethane, exsanguinated and a bronchoalveolar lavage (BAL) was carried out using 2×5 ml of 0.9% strength physiological saline solution.
The lavage fluid was collected and centrifuged at 400 g for 10 minutes, and the pellets were suspended in 1 ml of 0.9% strength physiological saline solution. The eosinophils were counted microscopically in a Neubauer chamber after staining by means of Becton Dickinson test kit No. 5877. This test kit contains Phloxin B as a selective stain for eosinophils. The eosinophils in the BAL was [sic] counted here for each animal and expressed as eosinophils (millions/animal). For each group the mean value and standard deviation were determined. The percentage inhibition of eosinophilia for the group treated with test substance was calculated according to the following formula: (A−B)−(B−C)/(A−C)×100=% inhibition in this formula A eosinophils correspond to the untreated challenge group, B eosinophils to the treated group and C eosinophils to the unchallenged control group.
The animals were treated with a histamine H1 antagonist (azelastine; 0.01 mg/kg p.o.) 2 hours before allergen challenge to avoid death. The administration of the test substances or of the vehicle was carried out 4 hours after allergen challenge.

The test system of data set [4] is CD3-induced IL-2 production. The experiment in a line: Inhibition of CD3-induced IL-2 production. In kind it is cell-based.

Each structure is given as a SMILES string.

recombinant human Cyp B, sequence (P23284 34-216): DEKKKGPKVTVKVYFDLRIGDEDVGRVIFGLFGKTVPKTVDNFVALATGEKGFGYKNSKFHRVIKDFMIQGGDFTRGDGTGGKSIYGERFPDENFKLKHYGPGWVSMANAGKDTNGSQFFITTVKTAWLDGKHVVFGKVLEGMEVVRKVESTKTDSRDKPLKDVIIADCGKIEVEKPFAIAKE

In general, inhibition refers to the change of the read-out against control, counted positive when it falls. A lower inhibition goes with little suppression. Consider `O=C(Nc1ccncc1)C(=O)c1cn(Cc2ccc(F)cc2)c2ccccc12` [Ex. 1, N-(Pyridin-4-yl)-[1-(4-fluorobenzyl)indol-3-yl]glyoxylamide], for which the inhibition at 0.1 µM is 18% in data set [1] (Conc. 0.1 μM) and 34% in data set [4] (Conc. 0.1 μM). Moreover, the inhibition at 1 µM was 39% in data set [1] (Conc. 1 μM) and 72% in data set [4] (Conc. 1 μM). Further, the inhibition at 10 µM in data set [1] (Conc. 10 μM) came to 61%; in data set [4] (Conc. 10 μM), 95%. Moreover, in data set [2], the “Inhibition of PPIase activity” value is 80-100%. For the same compound, the “% Inhibition of the "late phase" eosinophilia 24 h after allergen challenge” value in data set [3] (5 mg/kg i.p. + 4 h after allergen challenge) is given as 27.8%; in data set [3] (10 mg/kg i.p. + 4 h after allergen challenge) it was 55.4%; in data set [3] (30 mg/kg p.o. + 4 h after allergen challenge), 56.1%.
